Data as given in publication PMC13054725 (2026).

Experiments:
[1] = tested on: Dopa-A′ (DNA, aptamer) CGACGCCAGTTTGAAGGTTCGTTCGCAGGTGTGGAGTGACGTCG; test: ITC; conditions: PBS 1x, 2 mM Mg2+; 1x PBS, 2 mM MgCl2, 25 °C; one-site fit
[2] = tested on: Dopa-A (DA-A) (DNA, aptamer) GACGACTCCAGTTTGAAGGTTCGTTCGCAGGTGTGGAGTGAAGTCGTC; test: ITC; conditions: PBS 1x, 2 mM Mg2+; 1x PBS, 2 mM MgCl2, 25 °C; one-site fit

- Kd [1]: 3.5 µM
- Kd [2]: 2.7 µM
Structure (SMILES): NCCc1ccc(O)c(O)c1
